# Calls of active or inactive are those of the source. The calls are words filed in the database; no cut-off is given here.
# Key:
# [1] = test system: Rattus norvegicus; test: Reduction in mean arterial blood pressure in normotensive anaesthetized Wistar rat at 0.3 mg/kg administered intracisternally; format: functional
# [2] = test system: Rattus norvegicus; test: Reduction in heart rate in normotensive anaesthetized Wistar rat at 0.3 mg/kg administered intracisternally; format: functional
# [3] = test system: Rattus norvegicus; test: Reduction in heart rate in normotensive anaesthetized Wistar rat at 10 mg/kg, iv; design: scale not given: the % may be the effect or the level left
# [4] = test system: Rattus norvegicus; test: Reduction in mean arterial blood pressure in normotensive anaesthetized Wistar rat at 10 mg/kg, iv; design: scale not given: the % may be the effect or the level left
# [5] = target: Nischarin (Rattus norvegicus, UniProt Q4G017); test: Displacement of [125I] PIC from I1 imidazoline receptor in rat PC12 cells after 45 mins by gamma counting; format: cell-based, PC-12
# [6] = target: T1, Adrenergic receptor alpha-2 (Homo sapiens, UniProt P08913+P18825+P18089); test: Displacement of [3H]RX821002 from human alpha2 adrenoceptor expressed in CHO cell membranes after 60 mins; format: cell-based
# T1 sequence (P08913 whole entry): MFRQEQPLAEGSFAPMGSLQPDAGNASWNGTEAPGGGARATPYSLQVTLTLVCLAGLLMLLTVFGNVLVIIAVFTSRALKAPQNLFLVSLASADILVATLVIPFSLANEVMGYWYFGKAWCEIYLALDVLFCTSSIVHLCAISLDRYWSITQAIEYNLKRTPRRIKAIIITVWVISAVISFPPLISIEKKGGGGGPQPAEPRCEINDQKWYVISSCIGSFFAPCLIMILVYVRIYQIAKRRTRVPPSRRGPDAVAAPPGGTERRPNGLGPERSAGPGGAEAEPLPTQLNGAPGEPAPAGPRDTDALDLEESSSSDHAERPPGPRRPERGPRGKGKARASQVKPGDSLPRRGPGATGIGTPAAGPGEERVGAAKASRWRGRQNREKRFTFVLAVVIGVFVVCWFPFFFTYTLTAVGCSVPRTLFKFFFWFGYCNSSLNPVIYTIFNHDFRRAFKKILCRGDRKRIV
# T1 sequence (P18825 whole entry): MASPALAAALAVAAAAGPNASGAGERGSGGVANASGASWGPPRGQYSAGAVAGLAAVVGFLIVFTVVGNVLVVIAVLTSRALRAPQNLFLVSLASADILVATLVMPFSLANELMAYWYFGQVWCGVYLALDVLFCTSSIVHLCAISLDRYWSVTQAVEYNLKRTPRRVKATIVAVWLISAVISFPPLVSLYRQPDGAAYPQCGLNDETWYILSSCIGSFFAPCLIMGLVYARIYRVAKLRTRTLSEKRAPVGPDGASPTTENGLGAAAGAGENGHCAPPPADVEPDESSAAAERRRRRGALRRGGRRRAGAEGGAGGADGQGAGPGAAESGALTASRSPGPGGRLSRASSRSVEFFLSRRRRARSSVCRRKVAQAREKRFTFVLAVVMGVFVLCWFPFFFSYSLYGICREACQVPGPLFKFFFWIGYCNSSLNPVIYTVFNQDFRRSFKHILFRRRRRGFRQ
# T1 sequence (P18089 whole entry): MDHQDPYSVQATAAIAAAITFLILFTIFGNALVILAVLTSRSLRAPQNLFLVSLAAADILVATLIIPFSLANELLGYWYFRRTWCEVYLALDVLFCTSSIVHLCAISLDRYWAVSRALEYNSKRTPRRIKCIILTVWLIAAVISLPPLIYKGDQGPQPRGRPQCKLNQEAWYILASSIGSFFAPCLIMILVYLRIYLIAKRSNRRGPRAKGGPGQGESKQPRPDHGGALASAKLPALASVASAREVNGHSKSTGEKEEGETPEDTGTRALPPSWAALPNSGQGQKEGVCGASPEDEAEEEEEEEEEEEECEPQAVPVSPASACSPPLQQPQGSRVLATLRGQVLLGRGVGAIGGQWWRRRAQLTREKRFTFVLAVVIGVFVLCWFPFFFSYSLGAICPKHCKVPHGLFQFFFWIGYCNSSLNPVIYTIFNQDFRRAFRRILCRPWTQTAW
# [7] = test system: Rattus norvegicus; test: Reduction in heart rate in normotensive anaesthetized Wistar rat at 3 mg/kg, iv; design: scale not given: the % may be the effect or the level left
# [8] = test system: Rattus norvegicus; test: Reduction in mean arterial blood pressure in normotensive anaesthetized Wistar rat at 3 mg/kg, iv; design: scale not given: the % may be the effect or the level left
# [9] = test system: Rattus norvegicus; test: Reduction in heart rate in normotensive anaesthetized Wistar rat at 10 mg/kg, iv; format: functional; design: scale not given: the % may be the effect or the level left
# [10] = test system: CHO; test: Selectivity ratio of Ki for I1 imidazoline receptor in rat PC12 cells to Ki for human alpha2 adrenoceptor expressed in CHO cell membranes; format: cell-based
# Sequence of Nischarin (Q4G017 whole entry): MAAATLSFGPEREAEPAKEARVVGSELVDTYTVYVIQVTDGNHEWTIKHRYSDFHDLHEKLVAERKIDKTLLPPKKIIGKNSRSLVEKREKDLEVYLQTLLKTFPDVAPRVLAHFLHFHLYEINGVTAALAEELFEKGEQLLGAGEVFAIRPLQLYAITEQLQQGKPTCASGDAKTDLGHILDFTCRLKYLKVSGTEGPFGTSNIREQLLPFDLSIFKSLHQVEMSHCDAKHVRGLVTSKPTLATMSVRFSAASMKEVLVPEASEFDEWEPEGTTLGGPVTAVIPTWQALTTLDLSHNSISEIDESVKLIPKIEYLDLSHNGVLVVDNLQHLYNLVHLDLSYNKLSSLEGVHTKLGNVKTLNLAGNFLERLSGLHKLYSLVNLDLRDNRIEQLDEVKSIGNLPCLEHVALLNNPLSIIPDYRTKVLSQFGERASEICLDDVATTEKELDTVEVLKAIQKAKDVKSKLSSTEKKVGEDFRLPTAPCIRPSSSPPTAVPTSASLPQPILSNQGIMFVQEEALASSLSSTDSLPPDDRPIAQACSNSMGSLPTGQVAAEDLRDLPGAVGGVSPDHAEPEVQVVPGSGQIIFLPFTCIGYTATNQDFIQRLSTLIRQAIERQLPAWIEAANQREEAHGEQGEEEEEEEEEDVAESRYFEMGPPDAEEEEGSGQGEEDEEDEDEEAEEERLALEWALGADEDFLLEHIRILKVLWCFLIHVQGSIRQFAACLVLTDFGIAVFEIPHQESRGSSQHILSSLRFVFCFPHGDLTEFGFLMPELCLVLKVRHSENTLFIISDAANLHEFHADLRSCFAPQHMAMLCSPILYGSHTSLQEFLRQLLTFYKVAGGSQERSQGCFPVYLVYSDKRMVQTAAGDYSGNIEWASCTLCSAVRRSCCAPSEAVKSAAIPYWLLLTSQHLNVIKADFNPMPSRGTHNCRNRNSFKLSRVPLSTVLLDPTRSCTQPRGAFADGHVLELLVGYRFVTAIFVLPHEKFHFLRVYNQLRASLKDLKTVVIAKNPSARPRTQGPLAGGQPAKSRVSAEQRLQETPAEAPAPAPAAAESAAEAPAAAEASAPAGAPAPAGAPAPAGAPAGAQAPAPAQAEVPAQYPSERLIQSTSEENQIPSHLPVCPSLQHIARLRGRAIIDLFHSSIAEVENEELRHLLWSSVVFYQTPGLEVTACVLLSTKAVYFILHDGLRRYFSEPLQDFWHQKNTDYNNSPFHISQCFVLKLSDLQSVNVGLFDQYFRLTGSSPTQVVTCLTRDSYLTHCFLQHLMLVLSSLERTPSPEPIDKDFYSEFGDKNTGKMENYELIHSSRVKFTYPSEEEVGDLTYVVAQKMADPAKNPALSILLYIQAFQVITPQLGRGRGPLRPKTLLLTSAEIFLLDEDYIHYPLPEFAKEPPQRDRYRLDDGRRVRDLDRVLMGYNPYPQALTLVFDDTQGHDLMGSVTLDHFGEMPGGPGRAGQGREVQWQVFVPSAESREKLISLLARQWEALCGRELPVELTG
SMILES,Activity [1],Activity [2],Activity [3] [%],Activity [4] [%],Ki ([5]; read-out: Ki) [µM],Ki [6] [µM],also measured
Cc1ccc(F)c(/N=C2\CCC(C)N2)c1.Cl (stereo not drawn),inactive,inactive,6,9,,,
Cc1ccc(F)c(C2=NCCN2)c1,,,,,0.0053,> 10,
CC1CN/C(=N\c2ccc3c(c2)CCC3)C1.Cl (stereo not drawn),inactive,inactive,4,8,,,
CC1CC/C(=N/c2ccc(Cl)c3c2CCC3)N1.Cl (stereo not drawn),,,7,6,,> 10,
Cc1ccc(/N=C2/CC(C)CN2)c2c1CCC2.Cl (stereo not drawn),32%,15%,22,26,,> 10,
Clc1cccc(Cl)c1N=C1NCCN1 [CLONIDINE],,,,,0.0141,,
CC1CCC(Nc2ccc(Cl)c3c2CCC3)=N1 (stereo not drawn),inactive,inactive,,,0.0028,,
Cc1c(Cl)cccc1/N=C1\CCC(C)N1.Cl (stereo not drawn),25%,30%,20,28,0.027,> 10,
Cc1c(Cl)cccc1/N=C1\CC(C)CN1.Cl (stereo not drawn),30%,33%,,,,> 10,Activity [7]: 18%; Activity [8]: 30%
CC1CC/C(=N/c2ccc3c(c2)CCC3)N1.Cl (stereo not drawn),inactive,inactive,4,8,,,
CC1CN/C(=N\c2cccc3c2CCC3)C1.Cl (stereo not drawn),30%,30%,,,0.019,> 10,Activity [9]: 22%; Activity [8]: 35%
CC1CC(NC(C2CC2)C2CC2)=NC1C (stereo not drawn),,,,,,> 10,Ki [5]: 0.537 µM
CC1CNC(Nc2c(Cl)cccc2Cl)=N1 (stereo not drawn),,,,,,> 1.949,
NC1=NCC(COc2ccccc2Br)O1 (stereo not drawn),,,,,0.0064,> 10,
Cc1ccc(Cl)c(/N=C2\CCC(C)N2)c1.Cl (stereo not drawn),inactive,inactive,7,7,,,
C1COC(NC(C2CC2)C2CC2)=N1 [RILMENIDINE],,,,,0.0831,0.18,Ratio Ki [10]: 2.1
CC1CCC(Nc2ccc(I)cc2Cl)=N1 (stereo not drawn),,,,,0.0002,> 2.5,
COc1nc(C)nc(Cl)c1N=C1NCCN1 [MOXONIDINE],,,,,0.0778,,
CC1CN/C(=N\c2cccc3c2CCCC3)C1.Cl (stereo not drawn),inactive,inactive,3,5,,,
Cc1cc(F)ccc1/N=C1\CCC(C)N1.Cl (stereo not drawn),inactive,inactive,8,6,,,
Cc1cccc(/N=C2\CCC(C)N2)c1C.Cl (stereo not drawn),20%,25%,18,25,0.07,> 10,
CC1CN/C(=N\c2ccc(Cl)c3c2CCC3)C1.Cl (stereo not drawn),,,6,10,,> 10,
CC1CC/C(=N/c2cc3c(cc2Cl)CCC3)N1.Cl (stereo not drawn),inactive,inactive,3,9,,,
Cc1cccc(/N=C2\CC(C)CN2)c1C.Cl (stereo not drawn),25%,31%,,,0.042,10,Activity [9]: 20%; Activity [8]: 26%
CC1CC/C(=N\c2cc(N=[N+]=[N-])c(I)cc2Cl)N1 (stereo not drawn),,,,,0.00603,> 2.24,
CC1CC/C(=N/c2cccc3c2CCCC3)N1.Cl (stereo not drawn),29%,10%,26,37,0.073,> 10,
CC1CC/C(=N/c2cccc3c2CCC3)N1.Cl (stereo not drawn),32%,29%,20,37,0.019,> 10,
Cc1c(Cl)cccc1NC1=NCC(C)C1 (stereo not drawn),,,,,0.0032,,Ratio Ki [10]: > 3000
CC1CN=C(Nc2ccc(Cl)c3c2CCC3)C1 (stereo not drawn),inactive,inactive,,,0.00022,,
Cc1cccc(C)c1/N=C1/CCC(C)N1.Cl (stereo not drawn),inactive,inactive,4,5,,,

# From ChEMBL document CHEMBL3407341, “Synthesis and biological evaluation of 2-aryliminopyrrolidines as selective ligands for I1 imidazoline receptors: discovery of new sympatho-inhibitory hypotensive agents with potential beneficial effects in metabolic syndrome” (J Med Chem, 2015)
